In the supplement of paper PMC4862054:

Key:
Assay in all cases: normalised viability (% of control), CellTiter-Blue; higher = more viable cells (about 100 = DMSO control)
Conditions in all cases: incubation time: 72 h
CAL-85-1 [1] = test system: CAL-85-1
In short: (§1)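 The reported quantity is normalised viability at a single listed concentration of the series. Compound in 5 µl medium was pre-dispensed into 384-well plates and 20 µl of breast cancer cell suspension was added for 72 h. A 2 h, 37 °C CellTiter-Blue step (2.5 µl) preceded fluorescence reading at 560/590 nm, and plates were normalised to vehicle (100) and a positive kill control (0).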

CAL-51 [2] = test system: CAL-51
In short: as §1

HDQ-P1 [3] = test system: HDQ-P1
In short: as §1

BT-474 [4] = test system: BT-474
In short: as §1

HCC1937 [5] = test system: HCC1937
In short: as §1

HCC1599 [6] = test system: HCC1599
In short: as §1

HCC1143 [7] = test system: HCC1143
In short: as §1

SK-BR-3 [8] = test system: SK-BR-3
In short: as §1

MDA-MB-436 [9] = test system: MDA-MB-436
In short: as §1

DU-4475 [10] = test system: DU-4475
In short: as §1

MDA-MB-231 [11] = test system: MDA-MB-231
In short: as §1

CAL-51 [12] = test system: CAL-51; remark: listed apart in the source
In short: as §1

BT-474 [13] = test system: BT-474; remark: listed apart in the source
In short: as §1

HCC1937 [14] = test system: HCC1937; remark: listed apart in the source
In short: as §1

HCC1599 [15] = test system: HCC1599; remark: listed apart in the source
In short: as §1

SK-BR-3 [16] = test system: SK-BR-3; remark: listed apart in the source
In short: as §1

CAL-85-1 [17] = test system: CAL-85-1; remark: listed apart in the source
In short: as §1

DU-4475 [18] = test system: DU-4475; remark: listed apart in the source
In short: as §1

MDA-MB-231 [19] = test system: MDA-MB-231; remark: listed apart in the source
In short: as §1

CAL-148 = test system: CAL-148
In short: as §1

CAL-120 = test system: CAL-120
In short: as §1

BT-549 = test system: BT-549
In short: as §1

CAL-51 [20] = test system: CAL-51; remark: listed apart in the source
In short: as §1

MFM-223 = test system: MFM-223
In short: as §1

HDQ-P1 [21] = test system: HDQ-P1; remark: listed apart in the source
In short: as §1

BT-474 [22] = test system: BT-474; remark: listed apart in the source
In short: as §1

HCC1937 [23] = test system: HCC1937; remark: listed apart in the source
In short: as §1

MDA-MB-468 = test system: MDA-MB-468
In short: as §1

HCC1599 [24] = test system: HCC1599; remark: listed apart in the source
In short: as §1

MDA-MB-453 = test system: MDA-MB-453
In short: as §1

HCC1143 [25] = test system: HCC1143; remark: listed apart in the source
In short: as §1

SK-BR-3 [26] = test system: SK-BR-3; remark: listed apart in the source
In short: as §1

MDA-MB-436 [27] = test system: MDA-MB-436; remark: listed apart in the source
In short: as §1

Hs578T = test system: Hs578T
In short: as §1

CC[C@]1(O)C[C@H]2CN(CCc3c([nH]c4ccccc34)[C@@](C(=O)OC)(c3cc4c(cc3OC)N(C=O)[C@H]3[C@@](O)(C(=O)OC)[C@H](OC(C)=O)[C@]5(CC)C=CCN6CC[C@]43[C@@H]65)C2)C1 [Vincristine]
Conditions | normalised viability [%]
BT-474 [4], 10 nM | 46.2
BT-474 [4], 100 nM | 57.2
BT-474 [13], 1000 nM | 55.9
BT-474 [13], 10000 nM | 47.9
BT-474 [22], 100 nM | 52
BT-474 [22], 1000 nM | 50.6
BT-549, 100 nM | 22.3
BT-549, 1000 nM | 16.2
CAL-51 [2], 1 nM | 108
CAL-51 [2], 10 nM | 87.8
CAL-51 [12], 10 nM | 70.6
CAL-51 [12], 100 nM | 18
CAL-51 [20], 3 nM | 99
CAL-51 [20], 30 nM | 72.1
CAL-85-1 [1], 1 nM | 96.5
CAL-85-1 [1], 10 nM | 61.1
CAL-85-1 [17], 3 nM | 89.9
CAL-85-1 [17], 30 nM | 33
CAL-120, 100 nM | 19.3
CAL-120, 1000 nM | 19.2
CAL-148, 3 nM | 88.5
CAL-148, 30 nM | 23.2
DU-4475 [10], 10 nM | 56
DU-4475 [10], 100 nM | 19.5
DU-4475 [18], 3 nM | 94.7
DU-4475 [18], 30 nM | 48.9
HCC1143 [7], 10 nM | 34.2
HCC1143 [7], 100 nM | 40.4
HCC1143 [25], 100 nM | 38.8
HCC1143 [25], 1000 nM | 35.8
HCC1599 [6], 10 nM | 93.5
HCC1599 [6], 100 nM | 51.1
HCC1599 [15], 1000 nM | 73.7
HCC1599 [15], 10000 nM | 45.7
HCC1599 [24], 100 nM | 59.3
HCC1599 [24], 1000 nM | 48
HCC1937 [5], 10 nM | 33.6
HCC1937 [5], 100 nM | 17.8
HCC1937 [14], 1000 nM | 13.2
HCC1937 [14], 10000 nM | 16.1
HCC1937 [23], 100 nM | 13.8
HCC1937 [23], 1000 nM | 15.1
HDQ-P1 [3], 1 nM | 109
HDQ-P1 [3], 10 nM | 90.7
HDQ-P1 [21], 3 nM | 91.3
HDQ-P1 [21], 30 nM | 58.7
Hs578T, 100 nM | 17.7
Hs578T, 1000 nM | 16.8
MDA-MB-231 [11], 1000 nM | 14.4
MDA-MB-231 [11], 10000 nM | 14.5
MDA-MB-231 [19], 100 nM | 15.5
MDA-MB-231 [19], 1000 nM | 14.3
MDA-MB-436 [9], 10 nM | 52.4
MDA-MB-436 [9], 100 nM | 44.9
MDA-MB-436 [27], 100 nM | 35.4
MDA-MB-436 [27], 1000 nM | 39.5
MDA-MB-453, 3 nM | 92.1
MDA-MB-453, 30 nM | 22.6
MDA-MB-468, 100 nM | 33.4
MDA-MB-468, 1000 nM | 33.2
MFM-223, 100 nM | 40.2
MFM-223, 1000 nM | 28.1
SK-BR-3 [8], 10 nM | 15.6
SK-BR-3 [8], 100 nM | 15.8
SK-BR-3 [16], 1000 nM | 16.6
SK-BR-3 [16], 10000 nM | 16.8
SK-BR-3 [26], 100 nM | 17.1
SK-BR-3 [26], 1000 nM | 17.2
